SMILES strings stand for the structures.

This note sets out measurements from patent US8003669B2, “Remedy for sleep disturbance” (Mitsubishi Tanabe Pharma Corporation, priority 2002, dated 2011).

One test has as its target human ORL-1 receptor (Homo sapiens, UniProt P41146). Kind of test: Agonist action: inhibition of forskolin-stimulated cAMP elevation in HEK293 cells. Format: cell-based. The settings on record: HEK293 cells expressing human ORL-1 receptor, forskolin 1 μmol/L.
Another test has as its system rats. Description: Antagonistic action of the ORL-1 receptor antagonist on the phase advancement by the ORL-1 receptor agonist. Type of test: in vivo, rat. The settings on record: constant dark, oral.
Another test has as its target T1, ORL-1 receptor (Rattus norvegicus, UniProt P35370).
T1 construct: a standard product of the receptor prepared from cerebral cortex of rat; from tissue; host or cells: rat cerebral cortex
Kind of test: ORL-1 receptor binding test ([3H]-nociceptin). The following applies: receptor prepared from cerebral cortex of rat.

T1 sequence (P35370 whole entry): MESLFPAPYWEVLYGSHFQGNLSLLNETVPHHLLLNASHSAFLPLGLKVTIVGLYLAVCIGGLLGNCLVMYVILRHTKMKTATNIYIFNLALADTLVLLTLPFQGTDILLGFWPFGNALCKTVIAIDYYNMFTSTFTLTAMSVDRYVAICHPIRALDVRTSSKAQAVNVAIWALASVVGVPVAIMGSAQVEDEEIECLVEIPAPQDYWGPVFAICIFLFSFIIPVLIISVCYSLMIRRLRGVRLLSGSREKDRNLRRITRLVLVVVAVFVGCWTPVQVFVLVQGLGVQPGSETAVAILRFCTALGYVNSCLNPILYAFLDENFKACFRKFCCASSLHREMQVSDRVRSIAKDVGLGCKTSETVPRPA
Chain of human ORL-1 receptor (P41146 whole entry): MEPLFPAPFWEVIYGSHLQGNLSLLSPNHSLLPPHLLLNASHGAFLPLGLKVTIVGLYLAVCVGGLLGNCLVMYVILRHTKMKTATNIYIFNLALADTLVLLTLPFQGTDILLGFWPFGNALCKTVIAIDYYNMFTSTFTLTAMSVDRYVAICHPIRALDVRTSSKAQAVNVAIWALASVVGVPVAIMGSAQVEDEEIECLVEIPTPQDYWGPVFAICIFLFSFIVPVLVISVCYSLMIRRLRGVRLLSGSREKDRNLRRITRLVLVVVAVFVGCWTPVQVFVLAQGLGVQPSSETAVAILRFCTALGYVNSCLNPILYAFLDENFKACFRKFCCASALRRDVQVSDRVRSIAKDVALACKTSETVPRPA

As usually defined, the IC50 is the concentration at which inhibition is half-maximal. In general, Ki refers to the dissociation constant of the complex between target and ligand, obtained from inhibition or displacement. Turning to `CCc1ccc(OCc2ccccc2C(=O)Nc2ccc3nc(C)cc(N)c3c2)cc1.Cl` [compound D, N-(4-amino-2-methylquinolin-6-yl)-2-(4-ethylphenoxymethyl)benzamide hydrochloride], at human ORL-1 receptor, the “inhibition of cAMP production (ORL-1 receptor agonistic activity)” value is given as “did not inhibit cAMP production”. The “phase shift for the ORL-1 receptor antagonist alone” value with rats is recorded as “no phase shift was observed”. At ORL-1 receptor (25° C., 20 minutes, read-out: IC50 value, inhibition of the binding of [3H]-nociceptin), the IC50 was 500 nM. In addition, the Ki at ORL-1 receptor (Ki=IC50/(1+L/Kd), read-out: Ki value, inhibition of the binding of [3H]-nociceptin) amounted to 60.6 nM.
